Data as given in patent US5821231A, “CS-1 peptidomimetics, compositions and methods of using same” (Cytel Corporation, priority 1995, dated 1998).
Square brackets hold non-standard residues; d marks the D form. Peptide text beside a SMILES is read from it. * marks the point of attachment. PhAc = O=C(Cc1ccccc1)*

Legend:
BALB/c mice = experiment: Adoptive transfer delayed type hypersensitivity in mice (oxazolone); assay type: in vivo, mouse; details: initial study; 6 mg/kg/day s.c. pump, 24-hour; FIG. 5
Method: An adoptive transfer delayed-type hypersensitivity murine model has been developed using splenic T cells primed to oxazolone. This model is described in Elices et al., Clin. Exp. Rheum., 11(Suppl. 8):577-580 (1993), whose procedures were followed here.
Thus, BALB/c mice were shaved on the belly and painted (50 μl on the belly and 5 μl on each paw) with three percent oxazolone in acetone/olive oil (4:1) at days zero and 1. At day 5, the mice were sacrificed, their spleens removed, and splenic T cells were obtained via nylon wool columns.
Normal saline or saline containing 25×10^6 /animal of the oxazolone-immune T cells were separately injected into naive mice. The mice were then challenged by painting 10 μl of 2 percent oxazolone onto one ear each. All procedures were carried out under sterile conditions and in endotoxin-free buffers.
Prior to challenge or saline injection, the mice were implanted with pumps that subcutaneously administered normal saline, normal saline containing the compound, Compound ID No. 896.52, N-phenylacetyl-Leu-Asp-Phe-D-Pro-NH2, or normal saline containing a compound with a scrambled sequence continually at 6 mg/kg/day for a 24-hour time period. The swelling diameter at the site of challenge or saline injection was measured with a microcaliper 24 hours thereafter.
An expanded study was carried out as described above except that a scrambled compound control was not used as a control for further inhibitor compounds of Table 1 with larger groups of mice. Statistical analyses were carried out versus injection of vehicle alone.

asthmatic sheep = experiment: Treatment of asthmatic sheep (Ascaris suum antigen, crossover); assay type: in vivo; details: nebulized 1 mg/kg; FIG. 7
Method: Six asthmatic sheep were treated in a double blind cross-over study. […] This study was carried out generally as described in Abraham et al., J. Clin. Invest., 93:776-787 (1994).
The inhibitor compound used here was Compound ID No. 896.52, N-phenylacetyl-Leu-Asp-Phe-D-Pro-NH2, with a control compound that comprised the previously described compound having the same residues in a scrambled sequence. The vehicle for the nebulized compounds was phosphate-buffered saline. The compounds were administered at a dose of 1 mg/kg each, twice a day for three days prior to challenge, as well as 0.5 hours prior to and four hours post challenge on day 4. Because this was a crossover study, each animal received one or the other treatment, followed by a rest and then the other treatment. Each animal therefore served as its own control.
Post challenge airway responsiveness was also assayed. Here, specific lung resistance, SRL, returned to baseline values 24 hours after challenge, however, the sheep were hyperresponsive to inhaled carbachol at that time.

VLA-4 = VLA-4 (Homo sapiens, UniProt P05556+P13612); experiment: In vitro binding assay: 51Cr-labeled Jurkat cells to solid phase-bound CS-1 compound (SEQ ID NO:1); assay type: cell-based; parameters: inflammatory cells that contain the VLA-4 receptor [Jurkat cells; host or cells: Jurkat cells (human T lymphoblastic line)
Method: Binding inhibition is measured here as a concentration of compound that inhibits one-half the binding between a standard number of Jurkat cells and a standard amount of CS-1 compound bound to the surface of a microtiter plate well. Those concentrations are conveniently expressed as IC50 values, smaller numbers indicating a lower concentration required to inhibit 50 percent binding and therefore greater potency. Further specifics of this assay are provided hereinafter.
Jurkat cells (ATCC TIB 152), a human T lymphoblastic line, labeled with ^51 chromium were used to assay in vitro binding inhibition provided by various compounds discussed herein.
The plates were prepared as follows: The 25-mer CS-1 compound (SEQ ID NO:1) dissolved at 0.5-1 μg/ml in a buffer of 0.1M NaHCO3 at pH 9.5 that also contained 10 μg/ml of bovine serum albumin (BSA) or a conjugate of the CS-1 compound linked to ovalbumin (CS-1-OVA) dissolved at 1-2.5 μg/ml in the same buffer was used as the substrate. Each well of the microtiter plates was coated with 50 μl of substrate or buffer alone for controls. The wells were permitted to dry out completely and were then rinsed twice with PBS at pH 7.4. Non-specific binding sites of each well were then blocked using 200 μl per well of RPMI/1 percent BSA for two hours at room temperature.
Jurkat cells (3-5×10^6 cells) were placed into a 15 ml Falcon™ round-bottom tube with a cap. The tube was centrifuged, and the extra medium was then removed.
Two hundred microliters of a ^51 Cr labeling solution were added to the centrifuged cells and maintained in contact with the cells for 90-120 minutes in a warm room. […] Longer contact times provide a greater amount of labeling but lower cell viability.
The labeled cells are washed with (i) complete medium, (ii) 1 mM EDTA/PBS and then (iii) RPM1/1 percent BSA free of serum components. The cells are centrifuged after each washing. The cells are finally resuspended in serum-free RPMI/1 percent BSA at a concentration of 1×10^6 viable cells/ml, which provides a concentration that is diluted by one-half in the assay.
Inhibitor compounds are prepared as stock solutions at 20 mg/ml in DMSO in 1.5 ml cryogenic screwcap vials, and were stored at -70° C. Using Flow™ round-bottom or V-bottom microtiter plates, the inhibitor compounds were prepared at twice the assay concentration in RPMI/1 percent BSA at 60 μl/well.
Four initial dilutions were typically used.
The ^51 Cr-labeled cells ([…] at 60 μl/well) were then admixed with the diluted compound solutions. The admixtures were maintained at room temperature (about 22° C.) for 30 minutes.
One hundred microliters of each inhibitor compound/cell admixture were transferred to the substrate-coated wells. This was done in triplicate for each dilution. The resulting plates were incubated for 30 minutes at 37° C. and then washed gently three times with RPMI/1 percent BSA at 200 μl/well. Binding was observed microscopically, particularly after the second wash.
The bound cells were then lysed by the addition of a 0.5 percent solution of sodium dodecylsulfate in water at 100 μl/well. The resulting solutions were then processed for counting and calculation of IC50 values following usual procedures.
The data of Table 1 are normalized to the binding of SEQ ID NO: 3. […] Multiple assays for the same compound were averaged.

[1] = tested on: Porcine peripheral blood lymphocytes; experiment: In vitro porcine allograft model: transendothelial lymphocyte migration; assay type: cell-based; details: 10 μg/ml in the medium; IL-1β-stimulated SMC
Method: A similar study was carried out in vitro using porcine coronary artery endothelial cells (EC; as are present in the IEL) and smooth muscle cells (SMC; as are present in the medial layer of the artery). The two cell types were cultured using a membrane transwell system, with the SMC on the bottom layer in M-199 medium (Gibco Labs.). The SMC were stimulated with 100 ng/ml of interleukin-1β (IL-1β) for 24 hours prior to the start of the assay. Porcine peripheral blood lymphocytes were separated by Ficoll-Hypaque, radiolabeled and incubated overnight (about 18 hours) on the EC.

VLA-4, sequence (P13612 34-1032): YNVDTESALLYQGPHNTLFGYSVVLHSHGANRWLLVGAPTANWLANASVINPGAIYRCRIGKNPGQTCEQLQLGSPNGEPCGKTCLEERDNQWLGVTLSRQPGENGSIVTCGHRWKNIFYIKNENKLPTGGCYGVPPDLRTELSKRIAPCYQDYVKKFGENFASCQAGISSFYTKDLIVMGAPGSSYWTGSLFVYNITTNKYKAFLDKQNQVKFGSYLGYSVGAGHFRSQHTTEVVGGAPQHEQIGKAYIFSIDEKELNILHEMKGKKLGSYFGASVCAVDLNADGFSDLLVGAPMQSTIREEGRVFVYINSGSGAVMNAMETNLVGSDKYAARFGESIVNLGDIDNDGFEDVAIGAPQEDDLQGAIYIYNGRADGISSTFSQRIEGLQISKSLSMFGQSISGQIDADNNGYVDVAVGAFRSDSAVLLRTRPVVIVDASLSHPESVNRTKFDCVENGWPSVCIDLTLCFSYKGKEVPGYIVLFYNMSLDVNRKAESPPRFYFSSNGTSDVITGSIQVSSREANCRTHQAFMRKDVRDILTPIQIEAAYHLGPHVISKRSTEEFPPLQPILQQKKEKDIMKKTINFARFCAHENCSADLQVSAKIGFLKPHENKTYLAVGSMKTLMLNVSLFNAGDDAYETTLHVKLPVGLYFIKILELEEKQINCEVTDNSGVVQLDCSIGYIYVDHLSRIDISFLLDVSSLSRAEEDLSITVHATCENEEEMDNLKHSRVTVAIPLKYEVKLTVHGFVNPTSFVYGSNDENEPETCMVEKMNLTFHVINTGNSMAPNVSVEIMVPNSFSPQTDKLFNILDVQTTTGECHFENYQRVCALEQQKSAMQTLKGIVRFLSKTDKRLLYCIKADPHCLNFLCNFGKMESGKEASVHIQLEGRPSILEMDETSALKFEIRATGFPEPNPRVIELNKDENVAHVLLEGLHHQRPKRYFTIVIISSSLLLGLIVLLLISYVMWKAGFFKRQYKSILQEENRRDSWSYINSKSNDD
VLA-4, sequence (P05556 21-798): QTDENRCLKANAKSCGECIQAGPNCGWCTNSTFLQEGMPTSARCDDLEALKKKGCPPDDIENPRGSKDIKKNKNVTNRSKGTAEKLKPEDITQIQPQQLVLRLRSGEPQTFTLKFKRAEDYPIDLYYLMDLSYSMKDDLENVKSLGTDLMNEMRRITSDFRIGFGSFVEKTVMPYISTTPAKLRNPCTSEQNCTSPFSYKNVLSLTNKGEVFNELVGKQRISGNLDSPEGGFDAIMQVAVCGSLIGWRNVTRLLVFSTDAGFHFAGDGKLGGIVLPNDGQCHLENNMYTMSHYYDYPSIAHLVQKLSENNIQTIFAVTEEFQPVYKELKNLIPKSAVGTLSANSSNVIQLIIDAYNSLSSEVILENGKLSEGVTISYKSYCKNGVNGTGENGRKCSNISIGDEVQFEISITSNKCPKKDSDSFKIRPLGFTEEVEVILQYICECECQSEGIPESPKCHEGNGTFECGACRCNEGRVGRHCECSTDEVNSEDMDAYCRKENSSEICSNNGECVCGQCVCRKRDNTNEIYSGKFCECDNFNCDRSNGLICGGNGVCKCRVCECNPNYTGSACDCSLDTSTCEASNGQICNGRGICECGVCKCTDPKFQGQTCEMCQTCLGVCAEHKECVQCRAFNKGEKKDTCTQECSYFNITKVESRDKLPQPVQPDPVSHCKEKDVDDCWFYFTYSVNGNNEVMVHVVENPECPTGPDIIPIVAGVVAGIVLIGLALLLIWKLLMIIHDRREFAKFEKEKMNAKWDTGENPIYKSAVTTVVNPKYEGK

Structure (SMILES): CC(C)C[C@H](NC(=O)[C@H](CC(=O)O)NC(=O)Cc1ccccc1)C(=O)N[C@@H](Cc1ccccc1)C(=O)N1CCC[C@@H]1C(N)=O [N-phenylacetyl-Asp-Leu-Phe-D-Pro-NH2, reference compound] (PhAc-DLF[dP]-NH2)
- reduction of inflammation (swelling diameter at challenge site) (BALB/c mice): no reduction of inflammation
- change from baseline specific lung resistance (SRL) on challenge (asthmatic sheep): had an increase in that pulmonary function (SRL)
- Relative Potency (VLA-4; binding inhibition potency (IC50) relative to standard compound of SEQ ID NO:3 = 1, about one-tenth or less assigned zero): 0
- VLA-4 binding inhibition (in words) (VLA-4; compared with standard 10-mer of SEQ ID NO:3 or other peptides): no inhibition of VLA-4
- reduction of transendothelial lymphocyte migration [1]: did not reduce migration
